Measured values reported in patent US20240238426A1, “PROTEIN ACYLATION MODULATION BY HETEROBIFUNCTIONAL MOLECULES” (THE SCRIPPS RESEARCH INSTITUTE, priority 2021, published 2024).

Key:
[1] = target: T1, FKBP12^F36V and the bromodomain of p300 (BRD-p300) (Homo sapiens, UniProt P62942+Q09472, F37V); assay: GST-FKBP12^F36V/His-P300-BRD AlphaScreen assay, ternary complex formation; assay type: binding; settings: FIG. 3B
T1 construct: A construct containing residues 2-108 of FKBP12^F36V in pGEX4t-1 vector; the BRD domain of p300 (BRD-p300); purchased) 31372; host or cells: E. coli BL21(DE3) (GST-FKBP12^F36V)
T1 sequence (P62942 2-108 F37V): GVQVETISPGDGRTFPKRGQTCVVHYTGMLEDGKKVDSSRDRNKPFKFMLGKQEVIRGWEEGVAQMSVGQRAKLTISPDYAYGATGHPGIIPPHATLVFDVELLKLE
T1 sequence (Q09472 1049-1156): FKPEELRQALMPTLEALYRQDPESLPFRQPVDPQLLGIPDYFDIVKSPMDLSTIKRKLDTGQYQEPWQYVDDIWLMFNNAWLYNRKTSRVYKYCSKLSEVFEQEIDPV
Protocol: GST-FKBP12^F36V/His-P300-BRD AlphaScreen Assay: GST-FKBP12^F36V and 6xHis-p300-BRD (active motif #31372) were diluted to 250 nM and 500 nM, in assay buffer (50 mM HEPES pH 7.4, 200 mM NaCl, 1 mM TCEP, and 0.1% BSA), […] of protein mixture was added to each well of a 1/2 area 96-well OptiPlate (PerkinElmer). Compounds were then added from DMSO stock to protein mixture ([…]) with 1% DMSO in final mixture. Plates were then shaken orbitally at room temperature for 1 h. Nickel Chelate AlphaLISA Acceptor and Glutathione AlphaLISA Donor beads (PerkinElmer) diluted to 20 ng/ml in assay buffer and […] beads mixture was added to each well. After a 1 h orbital shaking at room temperature. luminescence was measured on the Envision 2104 plate reader (PerkinElmer). Data were plotted and analyzed using GraphPad PRISM v8 and fit with ‘Bell-shaped’ dose response curve.

FKBP12^F36V = target: T2, FKBP12^F36V (Homo sapiens, UniProt P62942, F37V); assay: AceTAG-1 target engagement: FKBP-p photo-crosslinking probe competition in HEK293T cells; assay type: cell-based; settings: 0.5 μM FKBP-p probe, increasing concentrations of AceTAG-1, 30 min, FIG. 3E
T2 construct: expressed in transfected cells; host or cells: HEK293T (transient)
T2 sequence (P62942 2-108 F37V limits assumed): as the sequence (P62942 2-108 F37V) above
Protocol: AceTAG-1 Target Engagement: At 50%-70% confluency, HEK293t cells in 6-well plates were transfected with pLEX305-C-dTAG-H3.3. After 24 h, cells were co-treated for 30 min with 0.5 μM FKBP-p probe and increasing concentration of AceTAG-1 in serum-free DMEM media. Cells then underwent UV-photocrosslinking (365 nm) for 20 min at 4° C., harvested in cold DPBS by scraping and centrifugation, cell pellets were washed with cold DPBS two times and aspirated. Cells were then lysed in 400 μL DPBS buffer supplemented with 0.2% SDS (w/v) and 1X Halt protease inhibitor cocktail. Lysate was then normalized to 1.5 mg/mL. […] Proteins (25 μg total protein loaded per gel lane) were resolved using SDS-PAGE (10% acrylamide) and visualized by in-gel fluorescence on Bio-Rad ChemiDoc MP Imaging System. Gel fluorescence and imaging was processed using Image Lab (v 6.0.1) software. […] Chemiluminescence was recorded with Bio-Rad ChemiDoc MP Imaging System and processed using Image Lab (v 6.0.1) software.

H3.3-FKBP12^F36V = target: T3, H3.3-FKBP12^F36V (Homo sapiens, UniProt P62942+Q09472, F37V); assay: Immunoblot analysis of H3.3-FKBP12^F36V acetylation in HeLa cells; assay type: cell-based
T3 construct: expressed in transfected cells
T3 sequence (P62942 2-108 F37V limits assumed): as the sequence (P62942 2-108 F37V) above
T3 sequence (Q09472 2-2414 limits assumed, stated change not applied): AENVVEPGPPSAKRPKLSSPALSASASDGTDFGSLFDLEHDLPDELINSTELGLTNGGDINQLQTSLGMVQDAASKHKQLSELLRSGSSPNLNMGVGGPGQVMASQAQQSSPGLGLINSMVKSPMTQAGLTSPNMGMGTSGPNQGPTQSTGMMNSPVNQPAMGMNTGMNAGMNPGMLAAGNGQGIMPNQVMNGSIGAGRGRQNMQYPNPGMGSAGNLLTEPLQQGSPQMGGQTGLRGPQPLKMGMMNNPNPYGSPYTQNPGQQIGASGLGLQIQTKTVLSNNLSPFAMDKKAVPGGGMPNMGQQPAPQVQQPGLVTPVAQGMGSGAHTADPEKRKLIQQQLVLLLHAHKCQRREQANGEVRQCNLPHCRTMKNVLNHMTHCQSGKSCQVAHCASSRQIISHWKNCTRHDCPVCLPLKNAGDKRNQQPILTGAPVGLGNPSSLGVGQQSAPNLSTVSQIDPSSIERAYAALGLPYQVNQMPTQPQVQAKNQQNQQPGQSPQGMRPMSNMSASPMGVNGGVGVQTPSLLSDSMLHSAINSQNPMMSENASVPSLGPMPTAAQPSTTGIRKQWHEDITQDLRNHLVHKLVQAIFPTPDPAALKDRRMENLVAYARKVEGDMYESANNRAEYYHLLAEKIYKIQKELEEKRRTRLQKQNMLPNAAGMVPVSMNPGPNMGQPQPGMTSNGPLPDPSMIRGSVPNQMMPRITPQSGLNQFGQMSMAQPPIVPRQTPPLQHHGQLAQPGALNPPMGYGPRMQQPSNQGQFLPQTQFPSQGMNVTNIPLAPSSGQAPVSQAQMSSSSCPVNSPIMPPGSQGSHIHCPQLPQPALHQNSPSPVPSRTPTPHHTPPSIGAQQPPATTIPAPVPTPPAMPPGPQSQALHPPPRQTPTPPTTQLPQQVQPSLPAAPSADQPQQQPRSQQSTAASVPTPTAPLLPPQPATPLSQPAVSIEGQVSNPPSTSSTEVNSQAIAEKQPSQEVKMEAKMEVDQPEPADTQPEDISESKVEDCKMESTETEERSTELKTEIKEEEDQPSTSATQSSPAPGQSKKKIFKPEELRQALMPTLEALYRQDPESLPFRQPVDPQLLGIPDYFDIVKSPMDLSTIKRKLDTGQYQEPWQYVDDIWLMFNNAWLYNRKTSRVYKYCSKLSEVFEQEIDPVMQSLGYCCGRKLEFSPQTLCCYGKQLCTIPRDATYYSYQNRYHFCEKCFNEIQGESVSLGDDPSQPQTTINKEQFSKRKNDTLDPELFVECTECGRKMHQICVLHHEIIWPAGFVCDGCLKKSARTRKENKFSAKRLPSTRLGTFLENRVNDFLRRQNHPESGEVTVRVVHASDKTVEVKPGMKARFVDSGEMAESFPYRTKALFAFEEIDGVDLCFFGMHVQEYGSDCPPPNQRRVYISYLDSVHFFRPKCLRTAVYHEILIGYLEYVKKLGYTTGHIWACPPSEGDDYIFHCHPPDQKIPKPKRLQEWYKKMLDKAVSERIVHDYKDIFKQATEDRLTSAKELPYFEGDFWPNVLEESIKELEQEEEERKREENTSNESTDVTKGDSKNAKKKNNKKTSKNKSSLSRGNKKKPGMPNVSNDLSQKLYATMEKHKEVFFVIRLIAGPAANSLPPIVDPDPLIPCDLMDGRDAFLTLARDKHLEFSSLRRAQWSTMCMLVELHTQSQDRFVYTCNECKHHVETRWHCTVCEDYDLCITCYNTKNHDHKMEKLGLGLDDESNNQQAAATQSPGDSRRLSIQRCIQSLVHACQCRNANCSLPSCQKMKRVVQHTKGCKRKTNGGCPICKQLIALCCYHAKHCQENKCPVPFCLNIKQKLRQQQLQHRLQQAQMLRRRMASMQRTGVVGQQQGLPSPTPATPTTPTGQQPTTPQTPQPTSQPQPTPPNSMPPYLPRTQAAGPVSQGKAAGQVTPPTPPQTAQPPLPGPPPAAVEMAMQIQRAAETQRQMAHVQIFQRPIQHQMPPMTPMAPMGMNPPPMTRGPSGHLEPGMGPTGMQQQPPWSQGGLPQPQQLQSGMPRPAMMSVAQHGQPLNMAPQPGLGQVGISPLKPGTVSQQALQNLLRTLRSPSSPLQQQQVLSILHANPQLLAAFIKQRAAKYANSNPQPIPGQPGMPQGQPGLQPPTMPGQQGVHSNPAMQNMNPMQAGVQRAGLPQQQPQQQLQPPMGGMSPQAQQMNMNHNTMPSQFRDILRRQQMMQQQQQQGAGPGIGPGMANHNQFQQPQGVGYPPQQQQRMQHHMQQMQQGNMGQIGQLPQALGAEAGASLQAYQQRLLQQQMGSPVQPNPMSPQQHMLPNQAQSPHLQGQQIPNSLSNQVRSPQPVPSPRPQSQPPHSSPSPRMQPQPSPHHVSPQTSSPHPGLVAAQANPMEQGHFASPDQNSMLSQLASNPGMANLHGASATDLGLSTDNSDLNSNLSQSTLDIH
Protocol: (§1) Lentivirus Production and Transduction: Lentiviral production was performed using HEK293T cells, which were co-transfected with pMD2.G (Addgene, #12259), psPAX2 (Addgene, #12260), and AceTAG lentiviral plasmids using PEI (Polysciences Inc). Viral particles were collected 72 h after transfection and filtered through a […] membrane. A range of dilutions of the lentivirus in DMEM complete and 10 μg/mL polybrene were added to HeLa, H1299, or HeLa RelA KO cell lines. Transduced cells were selected with 1 μg/mL or 2 μg/mL puromycin.
(§2) Immunoblotting: Cells were harvested in cold DPBS by scraping and washed with cold DPBS twice. Cell pellets were resuspended in DPBS supplemented with 5 mM sodium butyrate, 20 mM Nicotinamide, and 1X Halt Protease Inhibitor Cocktail and lysed by sonication (15 ms on, 40 ms off, 15% amplitude, 1s total on x 3). Protein concentration was determined using DC Protein Assay (Bio-Rad) and absorbance read using a CLARIOstar plate reader following manufacturer's instructions. Samples with equal protein content were boiled in 4X SDS gel loading buffer for 10 min. Proteins were separated by 10%, 12.5%, or 15% SDS-polyacrylamide gel electrophoresis and transferred to PVDF membranes using Trans-Blot Turbo RTA Mini […] LF PVDF Transfer Kit (Bio-Rad). Membranes were incubated for 1 h at room temperature with blocking buffer, followed by incubating overnight at 4° C. with primary antibodies. After washing in TBST, the secondary antibodies were incubated with the membranes at room temperature for 1 h. The membranes were washed with TBST for three times and visualized on a Bio-Rad ChemiDoc MP Imaging System with Clarity Max Western ECL substrate (Bio-Rad) or SuperSignal West Femto Chemiluminescent substrate proprietary luminol and peroxide solution kit (Thermo Scientific Pierce).

[2] = system: T4, FKBP12^F36V-RelA (Homo sapiens, F37V); assay: Immunoblot analysis of FKBP12^F36V-RelA acetylation in RelA-/- HeLa cells; assay type: cell-based
T4 construct: expressed in transfected cells
T4 sequence (P62942 2-108 F37V limits assumed): as the sequence (P62942 2-108 F37V) above
T4 sequence (Q09472 2-2414 limits assumed, stated change not applied, further chain): as the sequence (Q09472 2-2414 limits assumed, stated change not applied) above
Protocol: as §1, §2

**Q.** Which “concentration of maximum complex formation” value ([1]; FKBP12^F36V and BRD-p300, AlphaScreen) does the source give for `CC[C@H](C(=O)N1CCCC[C@H]1C(=O)O[C@H](CCc1ccc(OC)c(OC)c1)c1cccc(OCC(=O)NCCOCCOCCC(=O)NCCOc2ccc(CCc3nc4cc(-c5c(C)noc5C)ccc4n3CCN3CCOCC3)cc2)c1)c1cc(OC)c(OC)c(OC)c1` [AceTAG-1, (R)-3-(3,4-dimethoxyphenyl)-1-(3-((15-(4-(2-(5-(3,5-dimethylisoxazol-4-yl)-1-(2-morpholinoethyl)-1H-benzo[d]imidazol-2-yl)ethyl)phenoxy)-2,12-dioxo-6,9-dioxa-3,13-diazapentadecyl)oxy)phenyl)propyl (S)-1-((S)-2-(3,4,5-trimethoxyphenyl)butanoyl)piperidine-2-carboxylate] here?
**A.** Its value is roughly 1 µM.

**Q.** What about the “AceTAG-mediated ternary complex formation (AlphaScreen curve)” value ([1]; bell-shaped dose response fit) of the same molecule?
**A.** The value was “increased potence relative to other analogues”.

**Q.** And the “competition of FKBP-p probe binding to FKBP12^F36V” value (FKBP12^F36V)?
**A.** The value was “efficiently competed”.

**Q.** And the “treatment time after which H3.3-FKBP12^F36V acetylation significantly increased” value (H3.3-FKBP12^F36V; 625 nM AceTAG-1, FIG. 4E)?
**A.** The value was 5 min.

**Q.** What about the “acetylation level at high concentration (hook effect)” value (H3.3-FKBP12^F36V; 50 μM AceTAG-1) of the same molecule?
**A.** Its value is “loss of acetylation level”.

**Q.** And the “K18 acetylation, comparison of analogs” value (H3.3-FKBP12^F36V; FIG. 9B)?
**A.** Its value is “modestly higher levels of acetylation relative to the other analogs”.

**Q.** What about the “acetylation of H3.3” value (H3.3-FKBP12^F36V; HeLa cells, FIG. 8) of the same molecule?
**A.** Its value is “significant acetylation of H3.3”.

**Q.** And the “H3.3 acetylation at lysine 18, 23, and 27” value (H3.3-FKBP12^F36V; increasing concentrations, 2 hr, FIG. 4B)?
**A.** Its value is “dose-dependent increase”.

**Q.** What about the “H3.3 acetylation at lysine 9, 14, or 79” value (H3.3-FKBP12^F36V; increasing concentrations, 2 hr, FIG. 4C) of the same molecule?
**A.** The value was “not lysine 9, 14, or 79”.

**Q.** And the “time for H3.3 K18 acetylation to reach near basal levels after compound removal” value (H3.3-FKBP12^F36V; washout, FIG. 4F)?
**A.** Its value is no more than 2 h.

**Q.** And the “RelA acetylation at higher AceTAG-1 concentrations” value ([2]; FIG. 6A)?
**A.** Its value is “apparent acetylation autoinhibition”.

**Q.** What about the “RelA acetylation at neighboring K314/315” value ([2]; FIG. 9D) of the same molecule?
**A.** Its value is “minimal effects”.

**Q.** And the “RelA acetylation at K310” value ([2]; indicated doses, 2 hr, FIG. 6A)?
**A.** The value was “dose-dependent acetylation”.
